Assay results reported in patent publication US12643883B2, “Solid state forms of a kinase inhibitor” (Deciphera Pharmaceuticals, LLC, priority 2023, dated 2026).

What was measured:
Type in all cases: physicochemical
[1] = Hydration of the crystalline anhydrous form in low water activity solvents; settings: water activity 0.1, Ambient, XRPD
Protocol: The hydration of the crystalline anhydrous form was studied using aqueous solvent systems with low water activity of 0.1. Slurries of the crystalline anhydrous form in the respective solvent were agitated for 6 days at room temperature. Aliquots of isolated materials were analyzed after 24, 48, and 144 hours of agitation. Table 12 summarizes the experiment conditions and isolated crystalline forms, as determined by XRPD.

[2] = Static storage stability of crystalline dihydrate and anhydrous forms (XRPD, DSC, KF once weekly for four weeks)
Protocol: The stability of crystalline dihydrate and anhydrous forms of the compound represented by Formula (I) at varying relative humidity (RH) and temperature was investigated.
For example, the stability of crystalline dihydrate and anhydrous forms of the compound represented by Formula (I), as prepared according to Example 1 and Example 2, respectively, was studied under other conditions by placing aliquots of each form in static storage at conditions of 40° C./75% RH, 25° C./97% RH, 40° C./0% RH and 25° C./0% RH and analyzing the aliquots once weekly for four weeks using XRPD, DSC, and KF.

[3] = Hydration experiment, slurry of crystalline anhydrous form in deionized water; settings: successive 4-hour heat-cool cycles between 40° C. and room temperature for 72 hours
Protocol: In a hydration experiment, a slurry of the crystalline anhydrous form of the compound represented by Formula (I) and deionized water was subjected to successive 4-hour heat-cool cycles between 40° C. and room temperature for 72 hours.

[4] = static storage 25° C./0% RH, Week 1
[5] = static storage 25° C./0% RH, Week 2
[6] = static storage 25° C./0% RH, Week 3
[7] = static storage 25° C./0% RH, Week 4
[8] = static storage 25° C./97% RH, Week 1
[9] = static storage 25° C./97% RH, Week 2
[10] = static storage 25° C./97% RH, Week 3
[11] = static storage 25° C./97% RH, Week 4
[12] = static storage 40° C./0% RH, Week 1
[13] = static storage 40° C./0% RH, Week 2
[14] = static storage 40° C./0% RH, Week 3
[15] = static storage 40° C./0% RH, Week 4
[16] = static storage 40° C./75% RH, Week 1
[17] = static storage 40° C./75% RH, Week 2
[18] = static storage 40° C./75% RH, Week 3
[19] = static storage 40° C./75% RH, Week 4
[20] = static storage 25° C./0% RH, Week 4, listed as crystalline dihydrate form (having average crystal sizes of about 1 mm), dihydrate
[21] = static storage 40° C./0% RH, Week 1, dihydrate
[22] = static storage 40° C./0% RH, Week 4, listed as crystalline dihydrate form (having average crystal sizes of about 1 mm), dihydrate

## Cc1nc(-c2cnc(NC(C)C)n(C)c2=O)ccc1Oc1ccnc(-c2cnn(C)c2)c1 [2-(isopropylamino)-3-methyl-5-(6-methyl-5-((2-(1-methyl-1H-pyrazol-4-yl)pyridin-4-yl)oxy)pyridin-2-yl)pyrimidin-4 (3H)-one]
[1]; slurry in Acetone/water (99:1)
  Observed Forms 24 h: Anhydrous
  Observed Forms 144 h: Anhydrous
[1]; slurry in MEK/water (99:1)
  Observed Forms 24 h: Anhydrous
  Observed Forms 144 h: Dihydrate
[2]; 40° C./75% RH, 25° C./97% RH, 40° C./0% RH and 25° C./0% RH, after 4 weeks
  stability under all storage conditions: remained stable
[2]; [4]
  KF (%): 0.1%
  XRPD: Anhydrous
[2]; [5]
  KF (%): 0.1%
  XRPD: Anhydrous
[2]; [6]
  KF (%): 0.0%
  XRPD: Anhydrous
[2]; [7]
  KF (%): 0.2%
  XRPD: Anhydrous
[2]; [8]
  KF (%): 0.3%
  XRPD: Anhydrous
[2]; [9]
  KF (%): 0.3%
  XRPD: Anhydrous
[2]; [10]
  KF (%): 0.2%
  XRPD: Anhydrous
[2]; [11]
  KF (%): 0.4%
  XRPD: Anhydrous
[2]; [12]
  KF (%): 0.1%
  XRPD: Anhydrous
[2]; [13]
  KF (%): 0.0%
  XRPD: Anhydrous
[2]; [14]
  KF (%): 0.0%
  XRPD: Anhydrous
[2]; [15]
  KF (%): 0.2%
  XRPD: Anhydrous
[2]; [16]
  KF (%): 0.3%
  XRPD: Anhydrous
[2]; [17]
  KF (%): 0.2%
  XRPD: Anhydrous
[2]; [18]
  KF (%): 0.1%
  XRPD: Anhydrous
[2]; [19]
  KF (%): 0.3%
  XRPD: Anhydrous
[3]
  isolated solid identified by XRPD: crystalline dihydrate form

## Cc1nc(-c2cnc(NC(C)C)n(C)c2=O)ccc1Oc1ccnc(-c2cnn(C)c2)c1 [Dihydrate form of the compound represented by Formula (I) (h] [2-(isopropylamino)-3-methyl-5-(6-methyl-5-((2-(1-methyl-1H-pyrazol-4-yl)pyridin-4-yl)oxy)pyridin-2-yl)pyrimidin-4 (3H)-one dihydrate]
[2]; static storage 25° C./0% RH, Week 1, dihydrate
  XRPD: Dihydrate
[2]; static storage 25° C./0% RH, Week 1, dihydrate, dihydrate crystals about 10-50 µm
  KF (%): 7.5%
[2]; static storage 25° C./0% RH, Week 2, dihydrate
  XRPD: Dihydrate
[2]; static storage 25° C./0% RH, Week 2, dihydrate, dihydrate crystals about 10-50 µm
  KF (%): 7.7%
[2]; static storage 25° C./0% RH, Week 3, dihydrate
  XRPD: Dihydrate
[2]; static storage 25° C./0% RH, Week 3, dihydrate, dihydrate crystals about 10-50 µm
  KF (%): 8.1%
[2]; static storage 25° C./0% RH, Week 4, dihydrate
  XRPD: Dihydrate
[2]; static storage 25° C./0% RH, Week 4, dihydrate, dihydrate crystals about 10-50 µm
  KF (%): 7.9%
[2]; [20]
  KF (%): 5.8%
  XRPD: partially converted to the crystalline anhydrous form
[2]; static storage 25° C./97% RH, Week 1, dihydrate
  XRPD: Dihydrate
[2]; static storage 25° C./97% RH, Week 1, dihydrate, dihydrate crystals about 10-50 µm
  KF (%): 7.6%
[2]; static storage 25° C./97% RH, Week 2, dihydrate
  XRPD: Dihydrate
[2]; static storage 25° C./97% RH, Week 2, dihydrate, dihydrate crystals about 10-50 µm
  KF (%): 7.5%
[2]; static storage 25° C./97% RH, Week 3, dihydrate
  XRPD: Dihydrate
[2]; static storage 25° C./97% RH, Week 3, dihydrate, dihydrate crystals about 10-50 µm
  KF (%): 7.9%
[2]; static storage 25° C./97% RH, Week 4, dihydrate
  XRPD: Dihydrate
[2]; static storage 25° C./97% RH, Week 4, dihydrate, dihydrate crystals about 10-50 µm
  KF (%): 7.9%
[2]; static storage 25° C./97% RH, Week 4, listed as crystalline dihydrate form (having average crystal sizes of about 1 mm), dihydrate
  XRPD: remained stable and unchanged
[2]; [21]
  XRPD: Pattern 4
[2]; static storage 40° C./0% RH, Week 1, dihydrate, dihydrate crystals about 10-50 µm
  KF (%): 7.5%
[2]; static storage 40° C./0% RH, Week 1, listed as crystalline dihydrate form (having crystal sizes in the range of about 10-50 μm , dihydrate)
  XRPD: Pattern 4
[2]; static storage 40° C./0% RH, Week 2, dihydrate
  XRPD: Pattern 4
[2]; static storage 40° C./0% RH, Week 2, dihydrate, dihydrate crystals about 10-50 µm
  KF (%): 7.4%
[2]; static storage 40° C./0% RH, Week 2, listed as crystalline dihydrate form (having crystal sizes in the range of about 10-50 μm , dihydrate)
  XRPD: Pattern 4
[2]; static storage 40° C./0% RH, Week 3, dihydrate
  XRPD: Anhydrous
[2]; static storage 40° C./0% RH, Week 3, dihydrate, dihydrate crystals about 10-50 µm
  KF (%): 7.0%
[2]; static storage 40° C./0% RH, Week 3, listed as crystalline dihydrate form (having crystal sizes in the range of about 10-50 μm , dihydrate)
  XRPD: Pattern 4 and peaks at 9.9° and 10.6°
[2]; static storage 40° C./0% RH, Week 4, dihydrate, dihydrate crystals about 10-50 µm
  KF (%): 3.4%
[2]; [22]
  KF (%): 0.2%
  XRPD: partially converted to the crystalline anhydrous form
[2]; static storage 40° C./0% RH, Week 4, listed as crystalline dihydrate form (having crystal sizes in the range of about 10-50 μm , dihydrate)
  XRPD: Pattern 4 and peaks at 9.9° and 10.6°
[2]; static storage 40° C./75% RH, Week 1, dihydrate
  XRPD: Dihydrate
[2]; static storage 40° C./75% RH, Week 1, dihydrate, dihydrate crystals about 10-50 µm
  KF (%): 7.5%
[2]; static storage 40° C./75% RH, Week 2, dihydrate
  XRPD: Dihydrate
[2]; static storage 40° C./75% RH, Week 2, dihydrate, dihydrate crystals about 10-50 µm
  KF (%): 7.9%
[2]; static storage 40° C./75% RH, Week 3, dihydrate
  XRPD: Dihydrate
[2]; static storage 40° C./75% RH, Week 3, dihydrate, dihydrate crystals about 10-50 µm
  KF (%): 8.0%
[2]; static storage 40° C./75% RH, Week 4, dihydrate
  XRPD: Dihydrate
[2]; static storage 40° C./75% RH, Week 4, dihydrate, dihydrate crystals about 10-50 µm
  KF (%): 7.9%
[2]; static storage 40° C./75% RH, Week 4, listed as crystalline dihydrate form (having average crystal sizes of about 1 mm), dihydrate
  XRPD: remained stable and unchanged

## Cc1nc(-c2cnc(NC(C)C)n(C)c2=O)ccc1Oc1ccnc(-c2cnn(C)c2)c1 [ground crystalline dihydrate form, 2-(isopropylamino)-3-methyl-5-(6-methyl-5-((2-(1-methyl-1H-pyrazol-4-yl)pyridin-4-yl)oxy)pyridin-2-yl)pyrimidin-4 (3H)-one dihydrate]
[2]; [21]
  XRPD: Pattern 4 and the crystalline anhydrous form
